Source: patent publication US7476650B2, “Enzyme inhibition” (Yale University, priority 1999, dated 2009)
Each block holds one molecule with its values, some of them ahead of it. Where a SMILES comes first, the peptide text is derived from it. The star is where a group is joined. X1 = CC(C)C[C@H](N*)C(=O)[C@@]1(C)CO1

Tests used:
[1] = target: T1, trypsin-like activity of purified bovine erythrocyte 20S proteasome (Bos taurus, UniProt Q2TBP0); assay: Enzyme kinetic assay, trypsin-like activity (Boc-LRR-AMC); format: biochemical; details: for kobs/[I] for tryptic-like activity using Boc-LRR-AMC: Examples 9 and 10; for kobs/[I] Trypsin-like: Table 3
T1 construct: from tissue; host or cells: bovine erythrocytes (red blood cells)
Description: (§1) We investigated the potency of inhibitors of various length. Mono-, di-,tri- and tetraleucine α′,β′-epoxides were ranked by determination of the kobs/[I] values for inhibition of the chymotrypsin-like, trypsin-like, and PGPH activities of purified bovine erythrocyte 20S proteasome.
(§2) Purified bovine erythrocyte proteasome was enzymatically assayed using a variety of different substrates and inhibitors. In order to evaluate the rates of proteolytic inactivation by inhibitors, kassociation (kobs/[I]) values were determined using fluorogenic peptide substrates over a range of inhibitor concentrations.

[2] = target: T2, chymotrypsin-like activity of purified bovine erythrocyte 20S proteasome (Bos taurus, UniProt Q32KL2); assay: Enzyme kinetic assay, chymotrypsin-like activity (Suc-LLVY-AMC); format: biochemical; details: for kinact/KI: pH 8, Table 1, inhibitor concentration range in parentheses, read-out: kobs/[I] Chymotrypsin-like activity; for kobs/[I] for chymotryptic-like activity using Suc-LLVY-AMC: Examples 9 and 10, in M-1s-1; for kassoc = kobs/[I] (chymotrypsin-like activity inhibition): Table 5; for kobs/[I] Chymotrypsin-like: Table 3
T2 construct: from tissue; host or cells: bovine erythrocytes (red blood cells)
Description: as §1, §2

[3] = target: T3, PGPH activity of purified bovine erythrocyte 20S proteasome (Bos taurus, UniProt Q3MHN0); assay: Enzyme kinetic assay, PGPH activity (Z-LLE-AMC); format: biochemical; details: for kinact/KI: pH 8, Table 1, inhibitor concentration range in parentheses, read-out: kobs/[I] PGPH activity; for kobs/[I] for PGPH activity using Z-LLE-AMC: Examples 9 and 10; for kobs/[I] PGPH: Table 3; for selectivity for the PGPH activity: in words, data not shown for Glu compounds
T3 construct: from tissue; host or cells: bovine erythrocytes (red blood cells)
Experimental: as §1, with “proteasome. Enzyme kinetic assays were performed as described in Example 2.” for “proteasome.”
as §2

[4] = test system: bovine aortic endothelial (BAE) cells; assay: BAE cell proliferation ([methyl-3H]-thymidine incorporation); format: cell-based
Experimental: BAE cells were cultured at 7% CO2 and were grown in DMEM supplemented with 10% FBS, 1% penicillin/streptomycin (GIBCO), and 1 mM sodium pyruvate.
Approximately 1000 BAE cells were plated into each well of a 96-well culture plate. After an overnight incubation, different concentrations of proteasome inhibitors were added and incubation was continued for another five days. […] Subsequently, 74 kBq of [methyl-^3H]-thymidine was added to each well of the plate and the plate was incubated for another additional 4 hours. Cells were harvested using a Skatron Cell Harvester and incorporated radioactivity was quantified using liquid scintillation. Proliferation of BAE cells was assayed in triplicate in the presence of different concentrations of peptide epoxides.
Perturbation of the proteasome activity can result in inhibition of cell growth, and can further lead to cell death at elevated concentration of the proteasome inhibitors. This provides an excellent cell-based assay to assess the importance of each catalytic activity of the 20S proteasome in degradation of proteins involved in cell growth. We measured inhibition of proliferation of bovine aortic endothelial (BAE) cells with our α′,β′-epoxyketone-based inhibitors with varying degree of specificity for the PGPH activity.

Compound: CC(=O)N[C@@H](CC(C)C)C(=O)N[C@@H](CC(C)C)C(=O)[C@@]1(C)CO1
kinact/KI [2]: 3.1 M⁻¹ s⁻¹

Compound: CC(=O)N[C@@H](C)C(=O)N[C@H](C(=O)N[C@@H](CC(C)C)C(=O)[C@@]1(C)CO1)C(C)C [Ac-AVL-Ex]
kobs/[I] Trypsin-like [1]: 1.8 ± 0.1 M⁻¹ s⁻¹ | kobs/[I] Chymotrypsin-like [2]: 10.8 ± 0.2 M⁻¹ s⁻¹ | kobs/[I] PGPH [3]: 12.7 ± 1.3 M⁻¹ s⁻¹

Compound: CC(=O)N[C@@H](C)C(=O)N[C@H](C(=O)N[C@@H](CCC(=O)O)C(=O)[C@@]1(C)CO1)C(C)C [Ac-Ala-Val-Glu-α′,β′-epoxyketone]
selectivity for the PGPH activity [3]: did not display any significant selectivity

Compound: CC(=O)NCC(=O)NCC(=O)N1CCC[C@H]1C(=O)N[C@@H](Cc1ccccc1)C(=O)N[C@@H](CC(C)C)C(=O)[C@@]1(C)CO1 [Ac-GGPFL-Ex] (Ac-GGPF-X1)
kobs/[I] Trypsin-like [1]: 1.3 ± 0.3 M⁻¹ s⁻¹ | kobs/[I] Chymotrypsin-like [2]: 170 ± 60 M⁻¹ s⁻¹ | kobs/[I] PGPH [3]: 170 ± 30 M⁻¹ s⁻¹

Compound: CC(=O)NCC(=O)N1CCC[C@H]1C(=O)N[C@@H](Cc1ccccc1)C(=O)N[C@@H](CC(C)C)C(=O)C1(C)CO1 (stereo partly drawn) [Ac-GPFL-Ex]
IC50 ([4]; Table 6, PGPH-directed inhibitors): 58000 nM | inhibition of the trypsin-like activity of the proteasome ([1]; in words): no inhibition | kobs/[I] Chymotrypsin-like [2]: 5 ± 1 M⁻¹ s⁻¹ | selectivity: fold higher kobs/[I] for inhibition of the PGPH activity than the chymotrypsin-like activity ([3]; PGPH vs chymotrypsin-like): 35 fold | kobs/[I] PGPH [3]: 190 ± 10 M⁻¹ s⁻¹

Compound: CC(=O)NCC(=O)N1CCC[C@H]1C(=O)N[C@@H](Cc1ccccc1)C(=O)N[C@@H](CCC(=O)O)C(=O)[C@@]1(C)CO1 [Ac-Gly-Pro-Phe-Glu-α′,β′-epoxyketone]
selectivity for the PGPH activity [3]: did not display any significant selectivity

Compound: CC[C@H](C)[C@H](NC(C)=O)C(=O)N[C@H](C(=O)N[C@H](C(=O)N[C@@H](CCC(=O)O)C(=O)[C@@]1(C)CO1)[C@@H](C)O)[C@@H](C)CC [Ac-Ile-Ile-Thr-Glu-α′,β′-epoxyketone]
selectivity for the PGPH activity [3]: did not display any significant selectivity

Compound: CC[C@H](C)[C@H](NC(C)=O)C(=O)N[C@H](C(=O)N[C@@H](CCC(=O)O)C(=O)[C@@]1(C)CO1)C(C)C [Ac-Ile-Val-Glu-α′,β′-epoxyketone]
selectivity for the PGPH activity [3]: did not display any significant selectivity

Compound: CC(=O)N[C@@H](CC(C)C)C(=O)N[C@@H](C)C(=O)N[C@@H](CC(C)C)C(=O)N[C@@H](CC(C)C)C(=O)[C@@]1(C)CO1 [Ac-LALL-epoxide]
IC50 ([4]; Table 5, five days incubation): 700 nM | kobs/[I] for tryptic-like activity using Boc-LRR-AMC [1]: 2 M⁻¹ s⁻¹ | kobs/[I] for chymotryptic-like activity using Suc-LLVY-AMC [2]: 1,300 | kassoc = kobs/[I] (chymotrypsin-like activity inhibition) [2]: 1300 M⁻¹ s⁻¹ | kobs/[I] for PGPH activity using Z-LLE-AMC [3]: 130

Compound: CC(=O)N1CCC[C@H]1C(=O)N1CCC[C@H]1C(=O)N[C@@H](Cc1ccccc1)C(=O)N[C@@H](CC(C)C)C(=O)[C@@]1(C)CO1 [Ac-PPFL-Ex]
kobs/[I] Chymotrypsin-like [2]: 6.4 ± 3.3 M⁻¹ s⁻¹ | kobs/[I] PGPH [3]: 10.6 ± 0.3 M⁻¹ s⁻¹

Now from value to molecule, other results behind:

kobs/[I] for tryptic-like activity using Boc-LRR-AMC [1]: not measurable | kinact/KI [2]: 14000 M⁻¹ s⁻¹ | kinact/KI [3]: 9.2 M⁻¹ s⁻¹
Compound: CC(=O)N[C@@H](CC(C)C)C(=O)N[C@@H](CC(C)C)C(=O)N[C@@H](CC(C)C)C(=O)N[C@@H](CC(C)C)C(=O)[C@@]1(C)CO1

kinact/KI ([1]; pH 8, Table 1, inhibitor concentration range in parentheses, read-out: kobs/[I] trypsin-like activity): 5.1 M⁻¹ s⁻¹ | kinact/KI [2]: 780 M⁻¹ s⁻¹ | kinact/KI [3]: 120 M⁻¹ s⁻¹
Compound: CC(=O)N[C@@H](CC(C)C)C(=O)N[C@@H](CC(C)C)C(=O)N[C@@H](CC(C)C)C(=O)[C@@]1(C)CO1

kobs/[I] for tryptic-like activity using Boc-LRR-AMC [1]: 3.8 M⁻¹ s⁻¹ | kobs/[I] for chymotryptic-like activity using Suc-LLVY-AMC [2]: 5,300 | kassoc = kobs/[I] (chymotrypsin-like activity inhibition) [2]: 5300 M⁻¹ s⁻¹ | kobs/[I] for PGPH activity using Z-LLE-AMC [3]: 220
Compound: CC(=O)N[C@@H](C)C(=O)N[C@@H](CC(C)C)C(=O)N[C@@H](CC(C)C)C(=O)N[C@@H](CC(C)C)C(=O)[C@@]1(C)CO1 [Ac-ALLL-epoxide]
IC50 ([4]; Table 5, five days incubation): 83 nM

kobs/[I] Trypsin-like [1]: 6.7 ± 0.1 M⁻¹ s⁻¹ | kobs/[I] Chymotrypsin-like [2]: 5 ± 0.1 M⁻¹ s⁻¹ | kobs/[I] PGPH [3]: 14.6 ± 4.2 M⁻¹ s⁻¹
Compound: CC[C@H](C)[C@H](NC(C)=O)C(=O)N[C@H](C(=O)N[C@@H](CC(C)C)C(=O)[C@@]1(C)CO1)C(C)C [Ac-IVL-Ex]

kobs/[I] Chymotrypsin-like [2]: 42 ± 2 M⁻¹ s⁻¹ | kobs/[I] PGPH [3]: 32 ± 6 M⁻¹ s⁻¹
Compound: CC(=O)N1CCC[C@H]1C(=O)N[C@@H](Cc1ccccc1)C(=O)N[C@@H](CC(C)C)C(=O)[C@@]1(C)CO1 [Ac-PFL-Ex]
